One assay deals with T1, human Y1 receptor (Homo sapiens, UniProt P25929).
T1 construct: expressed in transfected cells; host or cells: BHK-21 clone 6-482-8, IPTG-induced (membrane preparation)
T1 sequence (P25929 1-384): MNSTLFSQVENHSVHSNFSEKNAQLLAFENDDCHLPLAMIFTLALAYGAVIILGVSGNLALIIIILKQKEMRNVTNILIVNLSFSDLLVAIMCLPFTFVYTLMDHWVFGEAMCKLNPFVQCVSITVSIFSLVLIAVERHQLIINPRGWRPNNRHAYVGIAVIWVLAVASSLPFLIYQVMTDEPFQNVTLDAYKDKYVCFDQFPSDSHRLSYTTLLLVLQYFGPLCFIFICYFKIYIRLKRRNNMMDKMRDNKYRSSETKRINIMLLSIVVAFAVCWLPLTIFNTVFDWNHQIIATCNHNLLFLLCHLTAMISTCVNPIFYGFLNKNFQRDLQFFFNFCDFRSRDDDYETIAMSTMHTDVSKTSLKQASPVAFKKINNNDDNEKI
The assay can be described thus: Scintillation proximity assay (SPA) receptor binding, Y1. The protocol: (§1) The purpose of this example is to test the in vitro binding of the PYY compounds to the Y1, Y2, Y4 and Y5 receptor subtypes, respectively. The receptor binding affinity is a measure of affinity of a compound for the human Y1, Y2, Y4 and Y5 receptor subtypes, respectively.
(§2) Scintillation Proximity Assay (SPA)
(§3) NPY-Receptor Expressing Cell Lines.
(§4) All cells were cultured at +37° C. in a humidified atmosphere with 5% CO2. […] CHO-K1 cells stably expressing the human Y2 receptor (P49146, NPY2R_HUMAN, Uniprot) were cultured in DMEM F-12 with 10% FBS, 1% P/S, 150 μg/ml Hygromycin B and 10 μg/ml Puromycin antibiotic. CHO-K1 cells stably expressing the human Y4 receptor (P50391, NPY4R_HUMAN, Uniprot) were cultured in DMEM F-12 with 10% FBS, 1% P/S, 10 μg/ml Puromycin. HEK-293 cells stably expressing the human Y5 receptor (Q15761, NPY5R_HUMAN, Uniprot) were cultured in DMEM F-12 medium containing 10% FBS, 1% Penicillin-Streptomycin, 250 μg/ml G418 and 1 μg/ml puromycin.
(§5) The homogenate was centrifuged at 35000 g using an ultracentrifuge for 10 minutes at +4° C. and the supernatant was discarded and fresh homogenization buffer added. Homogenization of the pellet was repeated a total of three times.
(§6) Human Y receptor SPA binding assay were performed in white 96-well plates in a total volume of 200 μl per well.
(§7) Plates were sealed and incubated at +25° C. for 2 hours in a plate shaker set at 400 rpm and thereafter centrifuged at 1500 rpm for 10 minutes prior to reading of luminescence on a microplate scintillation and luminescence counter. […] Displacement of radioligand was measured as reduction in luminescence and IC50 values were calculated by nonlinear regression analysis of sigmoidal dose-response curves.
In general terms: In a scintillation proximity assay essentially only radioactivity close to the scintillant gives light.

The next assay addresses T2, human NPY Y2 receptor (Homo sapiens, UniProt P49146).
T2 construct: host or cells: HEK-293 cells that also express a cAMP-sensitive calcium channel
T2 sequence (P49146 1-381): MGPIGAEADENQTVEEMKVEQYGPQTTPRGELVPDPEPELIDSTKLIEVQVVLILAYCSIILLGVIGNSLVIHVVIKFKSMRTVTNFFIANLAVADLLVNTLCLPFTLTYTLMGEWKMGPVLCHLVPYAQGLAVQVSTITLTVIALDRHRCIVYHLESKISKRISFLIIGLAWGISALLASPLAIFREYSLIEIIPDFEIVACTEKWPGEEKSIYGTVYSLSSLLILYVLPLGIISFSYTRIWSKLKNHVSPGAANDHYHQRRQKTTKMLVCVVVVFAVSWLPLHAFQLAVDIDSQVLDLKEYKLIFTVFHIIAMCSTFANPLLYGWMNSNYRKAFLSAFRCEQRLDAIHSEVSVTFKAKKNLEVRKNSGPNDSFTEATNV
The assay can be described thus: Actone functional potency assay (Y2 in vitro potency, whole cell). In kind it is cell-based. An excerpt:
The purpose of this example is to test the activity, or potency, of the PYY compounds in vitro. The Y2 in vitro potency is the measure of the activation of the human Y2 receptor subtype in a whole cell assay.
Actone Functional Potency Assay
The Neuropeptide Y (NPY) receptors are Gi-coupled seven trans-membrane receptors that mainly signal through the cAMP dependent pathway by inhibiting adenylate cyclase activity which results in a decrease of cAMP production from ATP. The Actone assay is based on a modified calcium channel that has a selective binding for cAMP, resulting in cellular calcium influx, detected by a calcium responsive dye. In order to measure decreased levels of cAMP, as result of NPY receptor activation, the β1/β2-adrenoreceptor agonist, isoproterenol, is added to activate adenylate cyclase and increases cAMP levels in the cell. Decreased cellular calcium concentrations, reflecting a decrease of cAMP levels due to NPY receptor activation, is detected as a decrease in fluorescence from the calcium sensitive dye.

For the next assay, the target named is T3, human Y4 receptor (Homo sapiens, UniProt P50391).
T3 construct: expressed in transfected cells; host or cells: CHO-K1 (membrane preparation)
The assay can be described thus: Scintillation proximity assay (SPA) receptor binding, Y4. Conditions: membranes of CHO-K1 cells, [125I]-Pancreatic Polypeptide. Here is the method: as §1, §2, §3, §4, §5, §6, §7

Where two headings read alike, the source gives them in different places. Some results are limits rather than exact numbers.

T3 sequence (P50391 whole entry): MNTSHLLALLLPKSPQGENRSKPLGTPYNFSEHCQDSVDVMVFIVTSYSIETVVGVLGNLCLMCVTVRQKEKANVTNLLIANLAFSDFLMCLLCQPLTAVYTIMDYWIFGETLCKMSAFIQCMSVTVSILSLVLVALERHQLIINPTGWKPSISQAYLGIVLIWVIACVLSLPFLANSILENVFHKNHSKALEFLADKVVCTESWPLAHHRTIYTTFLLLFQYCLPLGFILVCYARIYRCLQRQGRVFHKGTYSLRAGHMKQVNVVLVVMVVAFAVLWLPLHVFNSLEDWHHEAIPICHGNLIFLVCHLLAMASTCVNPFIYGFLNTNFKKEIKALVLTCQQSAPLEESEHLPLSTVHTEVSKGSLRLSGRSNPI

Broadly, the Ki is a measure of affinity in units of concentration, obtained from inhibition or displacement. Broadly, the EC50 is the midpoint of the concentration-response curve. A lower EC50 goes with a more potent agent. Consider `CC(C)CC(=O)N[C@@H](CCCNC(=N)N)C(=O)N1CCC[C@H]1C(=O)N[C@@H](CCC(=O)O)C(=O)N[C@@H](CCCCNC(=O)CC[C@H](NC(=O)CCCCCCCCCCCCCCCCC(=O)O)C(=O)O)C(=O)N1CCC[C@H]1C(=O)N[C@H](C(=O)N[C@@H](CCC(=O)O)C(=O)N[C@@H](CC(=O)O)C(=O)N[C@@H](C)C(=O)N[C@@H](CO)C(=O)N1CCC[C@H]1C(=O)N[C@@H](CCC(=O)O)C(=O)N[C@@H](CCC(=O)O)C(=O)N[C@@H](CC(C)C)C(=O)N[C@@H](CCC(N)=O)C(=O)N[C@@H](CCCNC(=N)N)C(=O)N[C@@H](Cc1ccc(O)cc1)C(=O)N[C@@H](Cc1ccc(O)cc1)C(=O)N[C@@H](CCC(N)=O)C(=O)N[C@@H](CO)C(=O)N[C@@H](CC(C)C)C(=O)N[C@@H](CCCNC(=N)N)C(=O)N[C@@H](Cc1c[nH]cn1)C(=O)N[C@@H](Cc1ccc(O)cc1)C(=O)N[C@@H](Cc1ccc(O)cc1)C(=O)N[C@@H](CC(N)=O)C(=O)N[C@@H](Cc1c[nH]c2ccccc12)C(=O)N[C@@H](CC(C)C)C(=O)N[C@H](C(=O)N[C@@H](CCCNC(=N)N)C(=O)N[C@@H](CCC(N)=O)C(=O)N[C@@H](CCCNC(=N)N)C(=O)N[C@@H](Cc1ccc(O)cc1)C(N)=O)[C@@H](C)O)[C@@H](C)O` [Compound 43, N{alpha-4}-(3-Methylbutanoyl)-N{Epsilon-7}-[(4S)-4-carboxy-4-(17-carboxy-heptadecanoylamino)butanoyl]-[Arg4,Lys7,Thr9,Gln18,Gln22,Tyr28,Trp30,Leu31]hPYY(4-36)], for which, on human Y1 receptor, the Ki was more than 10000 nM. This compound showed an EC50 at human NPY Y2 receptor of 0.77 nM. As for `CC(C)CC(=O)N[C@@H](CCCNC(=N)N)C(=O)N1CCC[C@H]1C(=O)N[C@@H](CCC(=O)O)C(=O)N[C@@H](C)C(=O)N1CCC[C@H]1C(=O)NCC(=O)N[C@@H](CCCCNC(=O)COCCOCCNC(=O)COCCOCCNC(=O)CC[C@H](NC(=O)CCCCCCCCCCCCCCCCC(=O)O)C(=O)O)C(=O)N[C@@H](CC(=O)O)C(=O)N[C@@H](C)C(=O)N[C@@H](CO)C(=O)N1CCC[C@H]1C(=O)N[C@@H](CCC(=O)O)C(=O)N[C@@H](CCC(=O)O)C(=O)N[C@@H](CC(C)C)C(=O)N[C@@H](CCC(N)=O)C(=O)N[C@@H](CCCNC(=N)N)C(=O)N[C@@H](Cc1ccc(O)cc1)C(=O)N[C@@H](Cc1ccc(O)cc1)C(=O)N[C@@H](CCC(=O)O)C(=O)N[C@@H](CO)C(=O)N[C@@H](CC(C)C)C(=O)N[C@@H](CCCNC(=N)N)C(=O)N[C@@H](Cc1c[nH]cn1)C(=O)N[C@@H](Cc1ccc(O)cc1)C(=O)N[C@@H](Cc1ccc(O)cc1)C(=O)N[C@@H](CC(N)=O)C(=O)N[C@@H](Cc1c[nH]c2ccccc12)C(=O)N[C@@H](CC(C)C)C(=O)N[C@H](C(=O)N[C@@H](CCCNC(=N)N)C(=O)N[C@@H](CCC(N)=O)C(=O)N[C@@H](CCCNC(=N)N)C(=O)N[C@@H](Cc1ccc(O)cc1)C(N)=O)[C@@H](C)O` [Compound 51, N{alpha-4}-(3-Methylbutanoyl)-N{Epsilon-10}-[2-[2-[2-[[2-[2-[2-[[(4S)-4-carboxy-4-(17-carboxyheptadecanoylamino)butanoyl]amino]ethoxy]ethoxy]acetyl]-amino]ethoxy]ethoxy]acetyl]-[Arg4,Lys10,Gln18,Glu22,Tyr28,Trp30,Leu31]-PYY(4-36)], the values for the Ki at human Y4 receptor (Y4 Ki) and at human Y1 receptor were more than 10000 nM and 2410 nM, respectively. Take `CC(C)CC(=O)N[C@@H](CCCNC(=N)N)C(=O)N1CCC[C@H]1C(=O)N[C@@H](CCC(=O)O)C(=O)N[C@@H](C)C(=O)N1CCC[C@H]1C(=O)NCC(=O)N[C@@H](CCCCNC(=O)COCCOCCNC(=O)COCCOCCNC(=O)CC[C@H](NC(=O)CCCCCCCCCCCCCCCCC(=O)O)C(=O)O)C(=O)N[C@@H](CC(=O)O)C(=O)N[C@@H](C)C(=O)N[C@@H](CO)C(=O)N1CCC[C@H]1C(=O)N[C@@H](CCC(=O)O)C(=O)N[C@@H](CCC(=O)O)C(=O)N[C@@H](CC(C)C)C(=O)N[C@@H](CCC(N)=O)C(=O)N[C@@H](CCCNC(=N)N)C(=O)N[C@@H](Cc1ccc(O)cc1)C(=O)N[C@@H](Cc1ccc(O)cc1)C(=O)N[C@@H](C)C(=O)N[C@@H](CCC(=O)O)C(=O)N[C@@H](CC(C)C)C(=O)N[C@@H](CCCNC(=N)N)C(=O)N[C@@H](Cc1c[nH]cn1)C(=O)N[C@@H](Cc1ccc(O)cc1)C(=O)N[C@@H](Cc1ccc(O)cc1)C(=O)N[C@@H](CC(N)=O)C(=O)N[C@@H](Cc1c[nH]c2ccccc12)C(=O)N[C@@H](CC(C)C)C(=O)N[C@H](C(=O)N[C@@H](CCCNC(=N)N)C(=O)N[C@@H](CCC(N)=O)C(=O)N[C@@H](CCCNC(=N)N)C(=O)N[C@@H](Cc1ccc(O)cc1)C(N)=O)[C@@H](C)O` [Compound 52, N{alpha-4}-(3-Methylbutanoyl)-N{Epsilon-10}-[2-[2-[2-[[2-[2-[2-[[(4S)-4-carboxy-4-(17-carboxyheptadecanoylamino)butanoyl]amino]ethoxy]ethoxy]acetyl]amino]-ethoxy]ethoxy]acetyl]-[Arg4,Lys10,Gln18,Glu23,Tyr28,Trp30,Leu31]-PYY(4-36)]: the Ki is 5690 nM on human Y4 receptor (read-out: Y4 Ki) and more than 10000 nM on human Y1 receptor (membranes of BHK-21 cells, [125I]-PYY(1-36), read-out: Y1 Ki).

In the case of `CC(C)CC(=O)N[C@@H](CCCNC(=N)N)C(=O)N1CCC[C@H]1C(=O)N[C@@H](CCC(=O)O)C(=O)N[C@@H](C)C(=O)N1CCC[C@H]1C(=O)N1CCC[C@H]1C(=O)N[C@@H](CCCCNC(=O)CC[C@H](NC(=O)COCCOCCNC(=O)CC[C@H](NC(=O)CCCCCCCCCCCCCCCCC(=O)O)C(=O)O)C(=O)O)C(=O)N[C@@H](CC(=O)O)C(=O)N[C@@H](C)C(=O)N[C@@H](CO)C(=O)N1CCC[C@H]1C(=O)N[C@@H](CCC(=O)O)C(=O)N[C@@H](CCC(=O)O)C(=O)N[C@@H](CC(C)C)C(=O)N[C@@H](CCC(N)=O)C(=O)N[C@@H](CCCNC(=N)N)C(=O)N[C@@H](Cc1ccc(O)cc1)C(=O)N[C@@H](Cc1ccc(O)cc1)C(=O)N[C@@H](CCC(=O)O)C(=O)N[C@@H](CO)C(=O)N[C@@H](CC(C)C)C(=O)N[C@@H](CCCNC(=N)N)C(=O)N[C@@H](Cc1c[nH]cn1)C(=O)N[C@@H](Cc1ccc(O)cc1)C(=O)N[C@@H](Cc1ccc(O)cc1)C(=O)N[C@@H](CC(N)=O)C(=O)N[C@@H](Cc1c[nH]c2ccccc12)C(=O)N[C@@H](CC(C)C)C(=O)N[C@H](C(=O)N[C@@H](CCCNC(=N)N)C(=O)N[C@@H](CCC(N)=O)C(=O)N[C@@H](CCCNC(=N)N)C(=O)N[C@@H](Cc1ccc(O)cc1)C(N)=O)[C@@H](C)O` [Compound 54, N{alpha-4}-(3-Methylbutanoyl)-N{Epsilon-10}-[(4S)-4-carboxy-4-[[2-[2-[2-[[(4S)-4-carboxy-4-(17-carboxyheptadecanoylamino)butanoyl]amino]ethoxy]ethoxy]-acetyl]amino]butanoyl]-[Arg4,Pro9,Lys10,Gln18,Glu22,Tyr28,Trp30,Leu31]-PYY(4-36)], at human NPY Y2 receptor, the EC50 turned out to be 1.6 nM.
